{"source": "paper PMC9500407", "about": "“Quantifying the transport of biologics across intestinal barrier models in real-time by fluorescent imaging” (Frontiers in Bioengineering and Biotechnology, 2022)", "key": {"[1]": {"system": "Caco-2:HT29-MTX E12 coculture tubules (chip)", "test": "Lucifer Yellow leakage after drug exposure, chip coculture", "details": "100 µM LY co-applied, after 2 h of exposure to 10 µM drug"}, "[2]": {"system": "Caco-2 monoculture tubules (chip)", "test": "In vitro drug absorption study, OrganoPlate chip monoculture tubules, Papp by LC-MS", "details": "OrganoPlate Caco-2 monoculture tubules, day 4, A-B, apical pH 6.5 / basolateral pH 7.4, 10 µM drug in 0.1% DMSO, 2 h, 37°C, constant flow, mean ± SEM, at least three biological replicates"}, "[3]": {"system": "Caco-2 monolayers (Transwell)", "test": "Lucifer Yellow leakage after drug exposure, Transwell", "details": "100 µM LY co-applied, after 2 h of exposure to 10 µM drug, Caco-2 Transwell"}, "[4]": {"system": "Caco-2 monolayers (Transwell)", "test": "In vitro drug absorption study, Transwell Caco-2 monolayer, Papp by LC-MS", "details": "Caco-2 Transwell, 19-21 days culture, apical pH 6.5 / basolateral pH 7.4 (TB, 10 mM HANKS/HBSS), 10 µM drug in 0.1% DMSO, 2 h, 37°C, static, mean ± SEM, at least three biological replicates"}, "[5]": {"system": "Caco-2:HT29-MTX E12 coculture tubules (chip)", "test": "In vitro drug absorption study, OrganoPlate chip coculture tubules, Papp by LC-MS", "details": "OrganoPlate Caco-2:HT29-MTX E12 6:1 coculture tubules, day 4, A-B, apical pH 6.5 / basolateral pH 7.4, 10 µM drug in 0.1% DMSO, 2 h, 37°C, constant flow, mean ± SEM, at least three biological replicates"}, "[6]": {"system": "Caco-2 monoculture tubules (chip)", "test": "Lucifer Yellow leakage after drug exposure, chip monoculture", "details": "100 µM LY co-applied, after 2 h of exposure to 10 µM drug"}, "[7]": {"system": "Caco-2:HT29-MTX E12 coculture tubules", "test": "Image based analysis of SNAC induced semaglutide transport", "assay_type": "in vitro ADME, human", "description": "semaglutide (purple) and FITC-dextran (green). Scale bar is 500 µm. Data represent the mean\nof at least two biological replicates per condition."}, "[8]": {"details": "cited from earlier work", "description": "page 17: Supplementary Table 5. Direct statistical comparison of drug transport in Transwells, mono-and coculture tubules of 12 model drugs using an unpaired t-test."}, "[9]": {"details": "cited from earlier work", "description": "page 15: Supplementary Table 4. Comparison of apparent permeability in chips using mono-and coculture tubules and Transwell system of 12 model drugs.", "remark": "listed apart in the source"}, "[10]": {"details": "human, ref Takenaka et al., 2016"}, "[11]": {"details": "known route of the drug, no reference given"}}, "note": "Like-named read-outs stand apart in the source and are kept apart here."}
{"smiles": "COCCc1ccc(OCC(O)CNC(C)C)cc1", "note": "(centres unmarked) [Metoprolol]", "values": [{"measurement": "Lucifer Yellow leakage (%) Chip Caco-2:HT29-MTX E12", "setting": "[1]", "value": 0.09, "unit": "%"}, {"measurement": "Chip Caco-2 Papp (apparent permeability coefficient from A B)", "setting": "[2]", "value": "17.67± 4.98 × 10-6 cm/sec"}, {"measurement": "Lucifer Yellow leakage (%) Transwell", "setting": "[3]", "value": 0.02, "unit": "%"}, {"measurement": "TW Caco-2 Papp (apparent permeability coefficient from A B)", "setting": "[4]", "value": "47.63± 5.44 × 10-6 cm/sec"}, {"measurement": "Chip Caco-2:HT29-MTX E12 Papp (apparent permeability coefficient from A B)", "setting": "[5]", "value": "44.99 ± 1.05 × 10-6 cm/sec"}, {"measurement": "Lucifer Yellow leakage (%) Chip Caco-2", "setting": "[6]", "value": 0.02, "unit": "%"}]}
{"smiles": "O=C([O-])CCCCCCCNC(=O)c1ccccc1O.[Na+]", "note": "[SNAC, salcaprozate sodium]", "values": [{"measurement": "Effect on cell layer (micrographs)", "setting": "[7]; 40 mM SNAC", "value": "partial removal of cell layer"}, {"measurement": "Effect on cell layer", "setting": "[7]; SNAC 20 mM or 40 mM with semaglutide-Cy3 5 µM, approx. 4 h, bright field and dextran", "value": "irreversible damage to the cell layer"}]}
{"smiles": "NC(=O)N1c2ccccc2C=Cc2ccccc21", "note": "[Carbamazepine]", "values": [{"measurement": "Lucifer Yellow leakage (%) Chip Caco-2:HT29-MTX E12", "setting": "[1]", "value": 0.01, "unit": "%"}, {"measurement": "Chip Caco-2 Papp (apparent permeability coefficient from A B)", "setting": "[2]", "value": 0.00021399, "unit": "cm/s"}, {"measurement": "Lucifer Yellow leakage (%) Transwell", "setting": "[3]", "value": 0.02, "unit": "%"}, {"measurement": "Transport route", "setting": "[8]", "value": "Transcellular"}, {"measurement": "TW Caco-2 Papp (apparent permeability coefficient from A B)", "setting": "[4]", "value": "204.43± 9.20 × 10-6 cm/sec"}, {"measurement": "Chip Caco-2:HT29-MTX E12 Papp (apparent permeability coefficient from A B)", "setting": "[5]", "value": "140.04 ± 6.25 × 10-6 cm/sec"}, {"measurement": "Lucifer Yellow leakage (%) Chip Caco-2", "setting": "[6]", "value": 0.02, "unit": "%"}, {"measurement": "FA in human % (fraction absorbed in human)", "setting": "[9]; in vivo", "value": 100, "unit": "%"}]}
{"smiles": "CN(C)C(=O)C(CCN1CCC(O)(c2ccc(Cl)cc2)CC1)(c1ccccc1)c1ccccc1", "note": "[Loperamide]", "values": [{"measurement": "Lucifer Yellow leakage (%) Chip Caco-2:HT29-MTX E12", "setting": "[1]", "value": 0.02, "unit": "%"}, {"measurement": "Chip Caco-2 Papp (apparent permeability coefficient from A B)", "setting": "[2]", "value": "11.03± 1.62 × 10^-6 cm/sec"}, {"measurement": "Lucifer Yellow leakage (%) Transwell", "setting": "[3]", "value": 0.02, "unit": "%"}, {"measurement": "TW Caco-2 Papp (apparent permeability coefficient from A B)", "setting": "[4]", "value": "58.60± 8.62 × 10^-6 cm/sec"}, {"measurement": "Chip Caco-2:HT29-MTX E12 Papp (apparent permeability coefficient from A B)", "setting": "[5]", "value": "2.75 ± 1.13 × 10^-6 cm/sec"}, {"measurement": "Lucifer Yellow leakage (%) Chip Caco-2", "setting": "[6]", "value": 0.68, "unit": "%"}]}
{"smiles": "CC(=O)CC(c1ccccc1)c1c(O)c2ccccc2oc1=O", "note": "(centres unmarked) [Warfarin]", "values": [{"measurement": "Chip Caco-2 Papp (apparent permeability coefficient from A B)", "setting": "[2]", "value": "160.97± 40.49 × 10-6 cm/sec"}, {"measurement": "Lucifer Yellow leakage (%) Transwell", "setting": "[3]", "value": 0.02, "unit": "%"}, {"measurement": "TW Caco-2 Papp (apparent permeability coefficient from A B)", "setting": "[4]", "value": 0.00024341, "unit": "cm/s"}, {"measurement": "Chip Caco-2:HT29-MTX E12 Papp (apparent permeability coefficient from A B)", "setting": "[5]", "value": 0.00030039, "unit": "cm/s"}]}
{"smiles": "CN/C(=N/CCSCc1nc[nH]c1C)NC#N", "note": "[Cimetidine]", "values": [{"measurement": "Lucifer Yellow leakage (%) Chip Caco-2:HT29-MTX E12", "setting": "[1]", "value": 0.02, "unit": "%"}, {"measurement": "Chip Caco-2 Papp (apparent permeability coefficient from A B)", "setting": "[2]", "value": "9.79± 3.41 × 10^-6 cm/sec"}, {"measurement": "Lucifer Yellow leakage (%) Transwell", "setting": "[3]", "value": 0.03, "unit": "%"}, {"measurement": "Transport route", "setting": "[8]", "value": "Paracellular"}, {"measurement": "TW Caco-2 Papp (apparent permeability coefficient from A B)", "setting": "[4]", "value": "5.08± 1.39 × 10^-6 cm/sec"}, {"measurement": "Chip Caco-2:HT29-MTX E12 Papp (apparent permeability coefficient from A B)", "setting": "[5]", "value": "11.87 ± 3.41 × 10^-6 cm/sec"}, {"measurement": "Lucifer Yellow leakage (%) Chip Caco-2", "setting": "[6]", "value": 0.03, "unit": "%"}, {"measurement": "FA in human % (fraction absorbed in human)", "setting": "[9]; [10]", "value": 62, "unit": "%"}]}
{"smiles": "C=C[C@H]1C[N@@]2CC[C@H]1C[C@@H]2[C@@H](O)c1ccnc2ccc(OC)cc12", "note": "[Quinidine]", "values": [{"measurement": "Transport route", "setting": "[8]; [11]", "value": "Transcellular"}]}
{"smiles": "CC(C)(C)NCC(O)c1cc(O)cc(O)c1", "note": "(centres unmarked) [Terbutaline]", "values": [{"measurement": "Lucifer Yellow leakage (%) Chip Caco-2:HT29-MTX E12", "setting": "[1]", "value": 0.01, "unit": "%"}, {"measurement": "Chip Caco-2 Papp (apparent permeability coefficient from A B)", "setting": "[2]", "value": "7.11± 0.43 × 10-6 cm/sec"}, {"measurement": "Lucifer Yellow leakage (%) Transwell", "setting": "[3]", "value": 0.02, "unit": "%"}, {"measurement": "Transport route", "setting": "[8]", "value": "Paracellular"}, {"measurement": "TW Caco-2 Papp (apparent permeability coefficient from A B)", "setting": "[4]", "value": "1.85± 0.10 × 10-6 cm/sec"}, {"measurement": "Chip Caco-2:HT29-MTX E12 Papp (apparent permeability coefficient from A B)", "setting": "[5]", "value": "5.09 ± 0.06 × 10-6 cm/sec"}, {"measurement": "Lucifer Yellow leakage (%) Chip Caco-2", "setting": "[6]", "value": 0.02, "unit": "%"}, {"measurement": "FA in human % (fraction absorbed in human)", "setting": "[9]; in vivo", "value": 44, "unit": "%"}]}
{"smiles": "CC(C)NCC(O)COc1cccc2ccccc12", "note": "(centres unmarked) [Propranolol]", "values": [{"measurement": "Lucifer Yellow leakage (%) Chip Caco-2:HT29-MTX E12", "setting": "[1]", "value": 0.03, "unit": "%"}, {"measurement": "Chip Caco-2 Papp (apparent permeability coefficient from A B)", "setting": "[2]", "value": "71.42± 5.08 × 10-6 cm/sec"}, {"measurement": "Lucifer Yellow leakage (%) Transwell", "setting": "[3]", "value": 0.02, "unit": "%"}, {"measurement": "TW Caco-2 Papp (apparent permeability coefficient from A B)", "setting": "[4]", "value": "101.68± 23.00 × 10-6 cm/sec"}, {"measurement": "Chip Caco-2:HT29-MTX E12 Papp (apparent permeability coefficient from A B)", "setting": "[5]", "value": "86.05 ± 21.67 × 10-6 cm/sec"}, {"measurement": "Lucifer Yellow leakage (%) Chip Caco-2", "setting": "[6]", "value": 0.03, "unit": "%"}]}
{"smiles": "CC[C@H]1OC(=O)[C@H](C)[C@@H](O[C@H]2C[C@@](C)(OC)[C@@H](O)[C@H](C)O2)[C@H](C)[C@@H](O[C@@H]2O[C@H](C)C[C@H](N(C)C)[C@H]2O)[C@](C)(O)C[C@@H](C)C(=O)[C@H](C)[C@@H](O)[C@]1(C)O", "note": "[Erythromicin]", "values": [{"measurement": "Lucifer Yellow leakage (%) Chip Caco-2:HT29-MTX E12", "setting": "[1]", "value": 0.01, "unit": "%"}, {"measurement": "Chip Caco-2 Papp (apparent permeability coefficient from A B)", "setting": "[2]", "value": "1.33e-06", "unit": "cm/s"}, {"measurement": "Lucifer Yellow leakage (%) Transwell", "setting": "[3]", "value": 0.03, "unit": "%"}, {"measurement": "TW Caco-2 Papp (apparent permeability coefficient from A B)", "setting": "[4]", "value": "1.2e-06", "unit": "cm/s"}, {"measurement": "Chip Caco-2:HT29-MTX E12 Papp (apparent permeability coefficient from A B)", "setting": "[5]", "value": "0.99 ± 0.32 × 10^-6 cm/sec"}, {"measurement": "Chip Caco-2:HT29-MTX E12 Papp (apparent permeability coefficient from A B)", "setting": "[5]; listed as Erythromycin", "value": "9.9e-07", "unit": "cm/s"}, {"measurement": "Lucifer Yellow leakage (%) Chip Caco-2", "setting": "[6]", "value": 0.04, "unit": "%"}, {"measurement": "FA in human % (fraction absorbed in human)", "setting": "[9]; human, ref Youhanna and Lauschke, 2021", "value": 35, "unit": "%"}]}
{"smiles": "CNC(=C[N+](=O)[O-])NCCSCc1ccc(CN(C)C)o1", "note": "[Rantidine]", "values": [{"measurement": "Lucifer Yellow leakage (%) Chip Caco-2:HT29-MTX E12", "setting": "[1]", "value": 0.01, "unit": "%"}, {"measurement": "Chip Caco-2 Papp (apparent permeability coefficient from A B)", "setting": "[2]", "value": "1.80± 0.27 × 10^-6 cm/sec"}, {"measurement": "Lucifer Yellow leakage (%) Transwell", "setting": "[3]", "value": 0.02, "unit": "%"}, {"measurement": "Transport route", "setting": "[8]; [11]", "value": "Paracellular"}, {"measurement": "TW Caco-2 Papp (apparent permeability coefficient from A B)", "setting": "[4]", "value": "3.22± 0.93 × 10^-6 cm/sec"}, {"measurement": "Chip Caco-2:HT29-MTX E12 Papp (apparent permeability coefficient from A B)", "setting": "[5]", "value": "2.29 ± 0.27 × 10^-6 cm/sec"}, {"measurement": "Lucifer Yellow leakage (%) Chip Caco-2", "setting": "[6]", "value": 0.02, "unit": "%"}, {"measurement": "FA in human % (fraction absorbed in human)", "setting": "[9]; [10]", "value": 50, "unit": "%"}]}
